Key:
Assay type in all cases: physicochemical
[1] = Vapor-liquid equilibrium still, trichloroethylene-n-butanol azeotrope with extractive distillation agent
[2] = Glass perforated plate rectification column (7.3 theoretical plates), trichloroethylene / n-butanol; conditions: 1 hr
[3] = as above; conditions: 2 hrs
From the text: Dimethylsulfoxide gave a relative volatility of 1.28 after two hours of operation.
A solution comprising 300 grams of trichloroethylene and 15 grams of n-butanol was placed in the stillpot of a 7.3 theoretical plate glass perforated plate rectification column. […] After two hours operation, overhead and bottoms samples were collected and analysed. The overhead analysis was 98.2% trichloroethylene, 1.8% n-butanol and the bottoms analysis was 90.1% trichloroethylene, 9.9% n-butanol. This gives an average relative volatility of 1.28 for each theoretical plate.

[4] = Example 1, refluxed seven hours

C[S+](C)[O-] [Dimethylsulfoxide]
liquid composition, n-butanol [1, 4]: 2.9%
liquid composition, trichloroethylene [1, 4]: 97.1%
vapor composition, n-butanol [1, 4]: 2.3%
vapor composition, trichloroethylene [1, 4]: 97.7%
Relative Volatility ([1]; Example 1: 60 g azeotrope, 30 g agent, refluxed seven hours): 1.25
Relative Volatility ([1]; trichloroethylene from n-butanol, Table 2): 1.3
Relative Volatility (per theoretical plate) [2]: 1.22
Weight % C2 H Cl3 ([2]; bottoms): 88.2%
Weight % n-Butanol ([2]; bottoms): 11.8%
Weight % C2 H Cl3 ([2]; overhead): 96.9%
Weight % n-Butanol ([2]; overhead): 3.1%
Relative Volatility (average, per theoretical plate) [3]: 1.28
Weight % C2 H Cl3 ([3]; bottoms): 90.1%
Weight % n-Butanol ([3]; bottoms): 9.9%
Weight % C2 H Cl3 ([3]; overhead): 98.2%
Weight % n-Butanol ([3]; overhead): 1.8%

— patent US5118392A, “Separation of trichloroethylene from a butyl alcohol by extractive distillation” (priority 1991, dated 1992)
